From the supplement of paper PMC4862054 come the findings set out here.

Common to all, as to experiment: normalised viability (% of control), CellTiter-Blue; higher = more viable cells (about 100 = DMSO control)
Common to all, as to conditions: incubation time: 72 h

Assay [1] relates to MDA-MB-453. On the procedure:
(§1)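 DSRT, CellTiter-Blue viability, 72 h incubation. Signal is normalised to DMSO and benzethonium chloride controls. Value is the normalised response at dose 6.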

In assay [2] the test system is HDQ-P1. The protocol: as §1
In assay [3] the test system is CAL-148. On the procedure:
as §1

Assay [4] concerns DU-4475. The protocol:
as §1

In assay [5] the test system is CAL-51. On the procedure: as §1
For assay [6], the system named is CAL-85-1. The protocol: as §1
Assay [7] deals with MDA-MB-453. On the procedure: (§2)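 DSRT, CellTiter-Blue viability, 72 h incubation. Signal is normalised to DMSO and benzethonium chloride controls. Value is the normalised response at dose 7.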
This is another data set of the same source.

Assay [8] deals with HDQ-P1. On the procedure:
as §2
This is another data set of the same source.

Assay [9] relates to CAL-148. The protocol:
as §2
This is another data set of the same source.

Assay [10] concerns DU-4475. The protocol: as §2
This is another data set of the same source.

The test system of assay [11] is CAL-51. The protocol:
as §2
The source holds these as a separate data set.

The subject of assay [12] is CAL-85-1. On the procedure: as §2
The source holds these as a separate data set.

Assay [13] relates to MDA-MB-453. On the procedure: (§3)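 DSRT, CellTiter-Blue viability, 72 h incubation. Signal is normalised to DMSO and benzethonium chloride controls. Value is the normalised response at dose 8.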
The source holds these as a separate data set.

Assay [14] deals with HDQ-P1. On the procedure:
as §3
This is another data set of the same source.

For assay [15], the system named is CAL-148. The protocol: as §3
The source holds these as a separate data set.

In assay [16] the test system is DU-4475. The protocol:
as §3
The source holds these as a separate data set.

The test system of assay [17] is CAL-51. On the procedure: as §3
This is another data set of the same source.

The subject of assay [18] is CAL-85-1. The protocol:
as §3
This is another data set of the same source.

Structures are written as SMILES. Where “and” joins values, the source holds several entries; their conditions need not be identical. Identical values can stand only once.

Take `CC(=O)c1c(C)c2cnc(Nc3ccc(N4CCNCC4)cn3)nc2n(C2CCCC2)c1=O` (300 nM): the normalised viability with MDA-MB-453 [1] amounted to 74.3%; with HDQ-P1 [2], 52.7%; in the assay on CAL-148 [3], 102%; in the assay with DU-4475 [4], 102%; in the assay on CAL-51 [5], 81.1%; in the assay on CAL-85-1 [6], 89.8%.

For `Cn1cc(C2=Nc3cc(NC(=O)C(N)C4CCCCC4)cc4c3C2=CNNC4=O)cn1` (stereo not given) (300 nM), the normalised viability in the assay with MDA-MB-453 [1] worked out at 34.9%; in the assay with HDQ-P1 [2], 58.7%; in the assay on CAL-148 [3] it was 84%; in the assay with DU-4475 [4], 84.3%; in the assay with CAL-51 [5], 93.9%; in the assay on CAL-85-1 [6] it was 66.1%.

Take `CC(=O)c1c(C)c2cnc(Nc3ccc(N4CCNCC4)cn3)nc2n(C2CCCC2)c1=O` (1000 nM): the normalised viability was determined as 66.2% in the assay with MDA-MB-453 [7]; 99.5% with HDQ-P1 [8]; 107% in the assay on CAL-148 [9]; 94.6% in the assay on DU-4475 [10]; 72.8% with CAL-51 [11]; 98.9% in the assay on CAL-85-1 [12].

With `CC(=O)c1c(C)c2cnc(Nc3ccc(N4CCNCC4)cn3)nc2n(C2CCCC2)c1=O` (3000 nM), the normalised viability in the assay with MDA-MB-453 [13] amounted to 63.6%; with HDQ-P1 [14], 120%; in the assay on CAL-148 [15], 103%; with DU-4475 [16] it was 102%; in the assay on CAL-51 [17], 69.6%; in the assay with CAL-85-1 [18] it was 102%.

For `Cn1cc(C2=Nc3cc(NC(=O)C(N)C4CCCCC4)cc4c3C2=CNNC4=O)cn1` (stereo not given) (3000 nM), the normalised viability with MDA-MB-453 [13] came out at 25.2%; in the assay on HDQ-P1 [14], 51.6%; with CAL-148 [15], 21.9%; in the assay with DU-4475 [16] it was 62.3%; in the assay on CAL-51 [17], 80.6%; in the assay with CAL-85-1 [18] it was 50.7%.

On to `COc1cc2c(cc1O)CC[C@@H]1[C@@H]2CC[C@]2(C)[C@@H](O)CC[C@@H]12` [2-methoxyestradiol] (300 nM), for which the normalised viability in the assay on MDA-MB-453 [1] turned out to be 81.3%; in the assay on HDQ-P1 [2], 72.2%; in the assay with CAL-148 [3], 97%; in the assay with DU-4475 [4], 90.8%; in the assay on CAL-51 [5], 110%; in the assay with CAL-85-1 [6] it was 99%.

In the case of `COc1cc2c(cc1O)CC[C@@H]1[C@@H]2CC[C@]2(C)[C@@H](O)CC[C@@H]12` [2-methoxyestradiol] (3000 nM), the normalised viability came to 34.4% in the assay with MDA-MB-453 [13]; 56.7% with HDQ-P1 [14]; 29.6% in the assay on CAL-148 [15]; 36.1% in the assay on DU-4475 [16]; 42.2% in the assay with CAL-51 [17]; 41.2% with CAL-85-1 [18].

Turning to `Cc1sc2c(c1C)C(c1ccc(Cl)cc1)=N[C@@H](CC(=O)OC(C)(C)C)c1nnc(C)n1-2` [(+)JQ1] (300 nM), the normalised viability with MDA-MB-453 [1] stood at 34.8%; in the assay on HDQ-P1 [2], 62.9%; with CAL-148 [3], 73.8%; in the assay on DU-4475 [4], 57.6%; in the assay with CAL-51 [5], 98.1%; in the assay on CAL-85-1 [6], 64.2%.

For `Cc1sc2c(c1C)C(c1ccc(Cl)cc1)=N[C@@H](CC(=O)OC(C)(C)C)c1nnc(C)n1-2` [(+)JQ1] (3000 nM), the normalised viability worked out at 23.3% in the assay with MDA-MB-453 [13]; 94.8% in the assay with HDQ-P1 [14]; 36.9% with CAL-148 [15]; 0.9% with DU-4475 [16]; 74.3% with CAL-51 [17]; 40.5% in the assay on CAL-85-1 [18].

`Oc1ncnc2[nH]ncc12` [Allopurinol] (300 nM): the normalised viability amounted to 101% in the assay on MDA-MB-453 [1]; 73.6% in the assay on HDQ-P1 [2]; 113% with CAL-148 [3]; 91.6% in the assay on DU-4475 [4]; 93.3% in the assay with CAL-51 [5]; 104% in the assay on CAL-85-1 [6].

Take `Oc1ncnc2[nH]ncc12` [Allopurinol] (3000 nM): the normalised viability with MDA-MB-453 [13] was 108%; in the assay on HDQ-P1 [14], 94.6%; with CAL-148 [15], 108%; in the assay with DU-4475 [16], 113%; in the assay with CAL-51 [17] it was 104%; in the assay on CAL-85-1 [18] it was 103%.

For the compound `O=C1CN2Cc3c(ccc(Cl)c3Cl)N=C2N1` [Anagrelide] (300 nM), the normalised viability worked out at 111% with MDA-MB-453 [1]; 80.3% in the assay with HDQ-P1 [2]; 107% in the assay with CAL-148 [3]; 94.7% in the assay on DU-4475 [4]; 77.6% in the assay on CAL-51 [5]; 94.4% in the assay on CAL-85-1 [6].

Regarding `O=C1CN2Cc3c(ccc(Cl)c3Cl)N=C2N1` [Anagrelide] (3000 nM), the normalised viability was 112% in the assay with MDA-MB-453 [13]; 85.4% with HDQ-P1 [14]; 94.8% in the assay with CAL-148 [15]; 97.8% in the assay with DU-4475 [16]; 78.4% in the assay with CAL-51 [17]; 84.8% in the assay with CAL-85-1 [18].

As to `Nc1ncn([C@@H]2O[C@H](CO)[C@@H](O)[C@H]2O)c(=O)n1` [Azacitidine] (300 nM), the normalised viability in the assay on MDA-MB-453 [1] was 91.9%; in the assay on HDQ-P1 [2], 84.5%; with CAL-148 [3], 95.3%; in the assay with DU-4475 [4] it was 90%; in the assay with CAL-51 [5], 104%; in the assay on CAL-85-1 [6] it was 93.1%.

With `Nc1ncn([C@@H]2O[C@H](CO)[C@@H](O)[C@H]2O)c(=O)n1` [Azacitidine] (3000 nM), the normalised viability in the assay on MDA-MB-453 [13] came to 101%; with HDQ-P1 [14], 105%; in the assay with CAL-148 [15], 89.5%; in the assay with DU-4475 [16], 99.7%; in the assay on CAL-51 [17] it was 109%; with CAL-85-1 [18], 93.8%.

As to `O=NN(CCCl)C(=O)NCCCl` [Carmustine] (300 nM), the normalised viability with MDA-MB-453 [1] is 110%; with HDQ-P1 [2] it was 79.4%; in the assay on CAL-148 [3] it was 101%; in the assay with DU-4475 [4] it was 77.4%; with CAL-51 [5], 108%; in the assay with CAL-85-1 [6], 94.2%.

For the compound `O=NN(CCCl)C(=O)NCCCl` [Carmustine] (3000 nM), the normalised viability in the assay with MDA-MB-453 [13] came to 118%; with HDQ-P1 [14], 108%; in the assay with CAL-148 [15], 102%; in the assay on DU-4475 [16] it was 90.5%; in the assay on CAL-51 [17], 102%; with CAL-85-1 [18], 95.7%.

Turning to `CC1=C2C[C@H]3[C@@H](CC=C4C[C@@H](O)CC[C@@]43C)[C@@H]2CC[C@]12O[C@@H]1C[C@H](C)CN[C@H]1[C@H]2C` [Cyclopamine] (300 nM), the normalised viability with MDA-MB-453 [1] turned out to be 113%; in the assay on HDQ-P1 [2] it was 79.2%; with CAL-148 [3], 115%; in the assay on DU-4475 [4], 105%; in the assay on CAL-51 [5], 115%; with CAL-85-1 [6] it was 106%.

Take `CC1=C2C[C@H]3[C@@H](CC=C4C[C@@H](O)CC[C@@]43C)[C@@H]2CC[C@]12O[C@@H]1C[C@H](C)CN[C@H]1[C@H]2C` [Cyclopamine] (3000 nM): the normalised viability in the assay with MDA-MB-453 [13] came out at 105%; with HDQ-P1 [14] it was 105%; in the assay with CAL-148 [15] it was 111%; in the assay on DU-4475 [16] it was 122%; in the assay on CAL-51 [17], 109%; with CAL-85-1 [18] it was 99.7%.

In the case of `CC(=O)O[C@@]12CO[C@@H]1C[C@H](O)[C@@]1(C)C(=O)[C@H](O)C3=C(C)[C@@H](OC(=O)[C@H](O)[C@@H](NC(=O)OC(C)(C)C)c4ccccc4)C[C@@](O)([C@@H](OC(=O)c4ccccc4)[C@H]21)C3(C)C` [Docetaxel] (30 nM), the normalised viability with MDA-MB-453 [1] was 27.2% and 26.1%; with HDQ-P1 [2] it was 23.5% and 31.8%; in the assay on CAL-148 [3] it was 18.9% and 14.9%; in the assay with DU-4475 [4], 19.6% and 16.1%; with CAL-51 [5], 25.8% and 20.6%; in the assay with CAL-85-1 [6] it was 30.6% and 27.1%.
